Legend:
Format in all cases: cell-based
[1] = system: Staphylococcus aureus; assay: Contact germicidal screen, Staphylococcus aureus ATCC No. 6538
Experimental: (§1) The organisms used in the contact germicidal screen are all maintained as stock cultures on nutrient agar […] 4° C. They are transferred and biochemically diagnosed monthly. The five organisms used are: The media used are: […] Overnight cultures of the test organisms are grown in tryptose phosphate broth. After 15-16 hours, the cultures are centrifuged at […] for 15 minutes, and the supernatant replaced with fresh warm (37° C.) media. After two hours of incubation, the absorbance of the culture at 650 nm is determined and diluted with nutrient broth to 1×10^7 colony forming units per ml (using a previous determined standard curve: colony forming units/ml vs. absorbance at 650). The diluted cultures are maintained at 4°-8° C. throughout the screen. The compounds are weighed into sterile 100 ml volumetric flasks, and immediately before screening dissolved in one of the following buffers: 0.1 M NaOAc pH 4.6 or 0.1 M NaH2 PO4 pH 7.0. If solubility poses a problem, 10-30% methanol is used to effect solution. Two denaturing agents are also tested: […] Horse Serum restored with 100 ml distilled water and 10% Trition×100. When used, 2.5 ml of the denaturing agent is mixed with 2.5 ml of double strength test solution thirty minutes before the bacterial suspension is added. The screen is initiated when 0.2 ml of the bacterial suspension is added to 5.0 ml of the test solution contained in a sterile 25 ml glass stoppered flask. At intervals of 0.5, 2.5, 5.0, 10.0 and 15.0 minutes, a loopful of the inoculated test solution is subcultured into 5 ml of sterile nutrient broth and mixed with a vortex, the high dilution serving to stop the action of the compound. All of the subculture tubes are incubated at 37° C. and checked for signs of growth by turbidity at 1, 3, 5 and 7 days. The earliest subculture time at which no growth is present is considered the endpoint and is recorded as the sterilization time. An aliquot of 0.2 ml of the diluted culture is transferred to 5 ml of buffer to simulate 0.2 ml in 5 ml of test solution. (a) Purity: A loopful of the inoculated buffer is streaked onto nutrient agar to check colony morphology and lack of contaminants. (b) Viability: A loopful of the inoculated buffer is subcultured to 5 ml of nutrient broth as in the screen and incubated at 37° C. for 24 hours. (c) Dilution of the Test Solution: A loopful of the test solution is transferred to a 5 ml tube of nutrient broth, and a loopful of the inoculated buffer is transferred to the same tube of broth. […] (d) Purity of Organisms in the Test Solution: After the 15 minute subculture, a loopful of the inoculated test solution is streaked onto nutrient agar to insure that contamination has not occurred during the screen. (e) lack of Bactericidal Activity of Buffers and Other Solvents: Before a buffer or other solvent is used as a diluent, it is screened against the five organisms to insure that the buffer or solvent has no antibacterial activity itself.

[2] = system: Salmonella typhimurium; assay: Contact germicidal screen, Salmonella typhimurium ATCC No. 13311
Experimental: as §1

[3] = system: Rhizopus oryzae; assay: Contact fungicidal screen, Rhizopus oryzae; conditions: 0.1M NaOAc pH 4.6
Experimental: The organisms used in the Contact Fungicidal Screen are a dermatophyte, trychophyton mentagrophytes, frequently associated with athlete's foot; a yeast, Candida albican, causative agent of thrush and vaginitis; a phycomycete, Rhizopus oryzae, commonly known as black bread mold; an ascomycete, Aspergillus fumagatis, found in chicken droppings and causing lung infections; and another dermatophyte, Microsporum canis, which causes ringworm. These organisms are maintained as stock cultures at 4° C. on agar slants of the following composition: dextrose 2%, Neopeptone (Difco) 1%, agar 2%. Fluid medium of the same nutrient composition (without agar) was used to test the viability of the organisms after exposure to the fungicide. This medium is also known as Sabouraud's medium.
[…]. The mycelial mat is removed from the surface of the agar using a sterile spatula. It is transferred to a heat sterilized glass tissue grinder and macerated with 25 ml of sterile physiological saline. The suspension is then filtered through sterile glass wool. The density of the sporangia spore suspension is determined by counting in a hemacytometer. The suspension is stored at 4° C. until it was used, at which time it was diluted with sterile physiological saline to a density of 5×10^6 spores per ml.
The compounds are weighed into heat sterilized 100 ml volumetric flasks and immediately before screening dissolved in 0.1 M NaOAc pH 4.6 buffer (test solutions).
The Aspergillus, Candida, Microsporum and Rhizopus species are screened in a slightly different manner. Basically, the procedure for the Contact Germicidal Efficiency Screen is utilized. After the test solutions are made up, 5 ml aliquots are pipetted into heat sterilized 25 ml glass stoppered erlenmeyer flasks. The screen is initiated when 0.5 ml of the 5×10^6 cell (spore) per ml suspension is added to the flask containing 5 ml of the test solution. At intervals of 0.5, 2.5, 5.0, 10.0 and 15.0 minutes, a 4 mm loopful of the inoculated test solution is subcultured into 7 mL of sterile fluid Sabouraud's medium and mixed on a vortex, the high dilution serving to stop the action of the compound. The subculture tubes are incubated at 25°-30° C. for ten days with daily observation for mycelial growth. The earliest subculture time at which no growth is present is considered the endpoint and is recorded as the sterilization time.
To insure the viability of the culture, a 0.5 ml aliquot of the 5×10^6 cells (spores) per ml suspension is transferred to 5 ml of the pH 4.6 buffer. A loopful of the inoculated buffer is then subcultured to 7 ml of fluid Sabouraud's medium and incubated at 25°-30° C. for ten days. To insure that the dilution of the test solution into the subculture medium does stop the action, a loopful of the test solution and a loopful of the inoculated buffer are transferred into the same subculture tube. This tube is also incubated at 25°-30° C. for ten days.

[4] = 10.0+ PPM, 0.1M NaOAc pH 4.6, screened simultaneously with four other compounds
[5] = 51.0 PPM, Triton X100 (10% solution):pH 4.6 buffer 1:1
[6] = 51.0 PPM, horse serum:pH 4.6 buffer 1:1
[7] = 300 PPM with 50% Horse Serum, 0.1M NaOAc pH 4.6
[8] = 300 PPM with 50% Triton X100, 0.1M NaOAc pH 4.6
[9] = 300 PPM, pH 4.6 buffer with 10% serum
[10] = 300 PPM, pH 4.6 buffer with 20% serum
[11] = 300 PPM, pH 4.6 buffer with 35% serum
[12] = 304.6 PPM, horse serum:pH 4.6 buffer 1:1
[13] = 304.8 PPM, Triton X100 (10% solution):pH 4.6 buffer 1:1
[14] = 606.9 PPM, pH 4.6 buffer with 33% serum
[15] = 899.25 PPM, pH 4.6 buffer with 25% serum
[16] = 1000 PPM with 50% Horse Serum, 0.1M NaOAc pH 4.6
[17] = 1001.2 PPM, horse serum:pH 4.6 buffer 1:1
[18] = 1016.0 PPM, 0.1M NaH2PO4 pH 7.0

Compound: CC(C)(CC(=O)O)N(Cl)Cl [(II)]
- Sterilization Time ([1]; 1.8 PPM, 0.1M NaOAc pH 4.6): 15.0 min
- Sterilization Time ([1]; 4.5 PPM, 0.1M NaOAc pH 4.6): 10.0 min
- Sterilization Time [1, 4]: 2.5 min
- Sterilization Time (summary) ([1]; 10 PPM, 0.1M NaOAc pH 4.6): 2.5 min
- Sterilization Time ([1]; 10.0 PPM, 0.1M NaOAc pH 4.6): 2.5 min
- Sterilization Time ([1]; 12.2 PPM, 0.1M NaOAc pH 4.6): 2.5 min
- Sterilization Time ([1]; 32.1 PPM, 0.1M NaOAc pH 4.6): 2.5 min
- Sterilization Time [1, 5]: 2.5 min
- Sterilization Time [1, 6]: 15 min
- Sterilization Time ([1]; 71.7 PPM, 0.1M NaOAc pH 4.6): 0.5 min
- Sterilization Time (summary) ([1]; 100 PPM, 0.1M NaOAc pH 4.6): 0.5 min
- Sterilization Time ([1]; 104.7 PPM, 0.1M NaOAc pH 4.6): 0.5 min
- Sterilization Time ([1]; 107.8 PPM, 0.1M NaH2PO4 pH 7.0): 10.0 min
- Sterilization Time ([1]; 298.9 PPM, 0.1M NaOAc pH 4.6): 0.5 min
- Sterilization Time (summary) [1, 7]: 15 min
- Sterilization Time (summary) [1, 8]: 0.5 min
- Sterilization Time [1, 9]: 0.5 min
- Sterilization Time [1, 10]: 2.5 min
- Sterilization Time [1, 11]: 10.0 min
- Sterilization Time [1, 12]: 15 min
- Sterilization Time [1, 13]: 0.5 min
- Sterilization Time ([1]; 316.6 PPM, 0.1M NaH2PO4 pH 7.0): 5.0 min
- Sterilization Time [1, 14]: 0.5 min
- Sterilization Time [1, 15]: 0.5 min
- Sterilization Time (summary) [1, 16]: 0.5 min
- Sterilization Time (summary) ([1]; 1000 PPM, 0.1M NaOAc pH 4.6): 0.5 min
- Sterilization Time [1, 17]: 0.5 min
- Sterilization Time ([1]; 1014.8 PPM, 0.1M NaOAc pH 4.6): 0.5 min
- Sterilization Time [1, 18]: 2.5 min
- Sterilization Time ([2]; 1.8 PPM, 0.1M NaOAc pH 4.6): 5.0 min
- Sterilization Time ([2]; 4.5 PPM, 0.1M NaOAc pH 4.6): 2.5 min
- Sterilization Time [2, 4]: 0.5 min
- Sterilization Time (summary) ([2]; 10 PPM, 0.1M NaOAc pH 4.6): 0.5 min
- Sterilization Time ([2]; 10.0 PPM, 0.1M NaOAc pH 4.6): 0.5 min
- Sterilization Time ([2]; 12.2 PPM, 0.1M NaOAc pH 4.6): 0.5 min
- Sterilization Time ([2]; 32.1 PPM, 0.1M NaOAc pH 4.6): 0.5 min
- Sterilization Time [2, 5]: 0.5 min
- Sterilization Time [2, 6]: 15 min
- Sterilization Time ([2]; 71.7 PPM, 0.1M NaOAc pH 4.6): 0.5 min
- Sterilization Time (summary) ([2]; 100 PPM, 0.1M NaOAc pH 4.6): 0.5 min
- Sterilization Time ([2]; 104.7 PPM, 0.1M NaOAc pH 4.6): 0.5 min
- Sterilization Time ([2]; 107.8 PPM, 0.1M NaH2PO4 pH 7.0): 2.5 min
- Sterilization Time ([2]; 298.9 PPM, 0.1M NaOAc pH 4.6): 0.5 min
- Sterilization Time (summary) [2, 7]: 2.5 min
- Sterilization Time (summary) [2, 8]: 0.5 min
- Sterilization Time [2, 9]: 0.5 min
- Sterilization Time [2, 10]: 0.5 min
- Sterilization Time [2, 11]: 2.5 min
- Sterilization Time [2, 12]: 2.5 min
- Sterilization Time [2, 13]: 0.5 min
- Sterilization Time ([2]; 316.6 PPM, 0.1M NaH2PO4 pH 7.0): 2.5 min
- Sterilization Time [2, 14]: 0.5 min
- Sterilization Time [2, 15]: 0.5 min
- Sterilization Time (summary) [2, 16]: 0.5 min
- Sterilization Time (summary) ([2]; 1000 PPM, 0.1M NaOAc pH 4.6): 0.5 min
- Sterilization Time [2, 17]: 0.5 min
- Sterilization Time ([2]; 1014.8 PPM, 0.1M NaOAc pH 4.6): 0.5 min
- Sterilization Time [2, 18]: 0.5 min
- Sterilization Time ([3]; 10 PPM): 15 min
- Sterilization Time ([3]; 100 PPM): 15 min
- Sterilization Time ([3]; 1000 PPM): 10.0 min
